Like-named read-outs stand apart in the source and are kept apart here.
Key:
[1] = target: T1, ENPP-1 ECD (Homo sapiens (Human), UniProt P22413); test: Assay 2: inhibition of ENPP1 hydrolysis of 2′,3′-cGAMP (AMP-Glo, […] enzyme)
Method: Assay 2: Compared to the conditions in Assay 1, this assay has a larger dynamic range and ensures the system is under steady-state conditions by reducing the enzyme concentration in the assay.
Test compounds were plated in a 3× dilution scheme in a 384 well plate. […] AMP Detection solution (10 μL) was added to each well, the plate centrifuged and incubated for 60 min.

[2] = target: ENPP1 on MDA-MB-231 cells (Homo sapiens (Human), UniProt P22413); test: Assay 3: inhibition of ENPP1 hydrolysis of AMP p-nitrophenyl ester on MDA-MB-231 cells
Method: Hydrolysis of the p-nitrophenyl ester of AMP (pNP-AMP), an isostere of ATP, is selectively catalyzed by ENPP1 in the supernatant of MDA-MB-231 cell cultures. Inhibition of the hydrolysis of pNP-AMP by MDA-MB-231 at pH 7.4 and 37° C., is a good model of physiologically relevant activity of membrane-bound ENPP1 at disease-relevant expression levels.
MDA-MB-231 cells were harvested using TypLE Express Enzyme digestion and suspended in 100 μL of Leibovitz's L-15 Medium, 20% FBS, seeding the cells in a 96-well assay plate with 4.5×10^4 cells/well. Cells were incubated at 37° C. with 1% CO2 for 24 h. In a separate dilution plate, 2× of top dose of compound was prepared in phenol-red free 1640 medium without FBS and then 1:3 serial diluted in the same medium. The cell culture medium of L15 medium was aspirated carefully and cells were washed with PBS once, and 50 μL per well of test compound or DMSO blank were added to the assay plate. Substrate mix (50 μL; 0.5 mM pNP-AMP in phenol-red free 1640 media without FBS) was added for a pNP-AMP final concentration of 0.25 mM. The system was incubated at 37° C. for 3 h.

[3] = target: T1, ENPP-1 ECD; test: Assay 1: inhibition of ENPP1 hydrolysis of 2′,3′-cGAMP (AMP-Glo, […] enzyme)
Method: Assay 1: Test compounds were plated in a 3× dilution scheme in a 384 well plate. […] AMP Detection solution (100 μL) was added to each well, the plate centrifuged and incubated for 60 min.

[4] = Assay 2 (KI), ENPP1 hydrolysis of 2′,3′-cGAMP, AMP-Glo, […] ENPP-1, 24 μM cGAMP
[5] = Assay 2 (KI), inhibition of ENPP1 hydrolysis of 2′,3′-cGAMP, no unit in Table 18 (Table 17 legend for this assay uses nM)
[6] = Assay 1 (IC50), ENPP1 hydrolysis of 2′,3′-cGAMP, AMP-Glo
[7] = Assay 1 (IC50), inhibition of ENPP1 hydrolysis of 2′,3′-cGAMP, no unit in Table 18 (Table 17 legend for this assay uses nM)
[8] = IC50 in Assay 1, […] ENPP-1 ECD, 24 μM 2,3-cGAMP, pH 8.0
[9] = read-out: Assay 1 (IC50), ENPP1 hydrolysis of 2′,3′-cGAMP, AMP-Glo
[10] = read-out: Assay 2 (KI), ENPP1 hydrolysis of 2′,3′-cGAMP, AMP-Glo, […] ENPP-1, 24 μM cGAMP
[11] = read-out: Assay 2 (KI), inhibition of ENPP1 hydrolysis of 2′,3′-cGAMP, no unit in Table 18 (Table 17 legend for this assay uses nM)
[12] = read-out: Assay 3 (KI, app), apparent KI from IC50 via Cheng/Prusoff, pNP-AMP […], MDA-MB-231 cells, pH 7.4, 37° C., 3 h, unit inferred
[13] = read-out: Assay 1 (IC50), inhibition of ENPP1 hydrolysis of 2′,3′-cGAMP, no unit in Table 18 (Table 17 legend for this assay uses nM)

T1 sequence (P22413 98-925): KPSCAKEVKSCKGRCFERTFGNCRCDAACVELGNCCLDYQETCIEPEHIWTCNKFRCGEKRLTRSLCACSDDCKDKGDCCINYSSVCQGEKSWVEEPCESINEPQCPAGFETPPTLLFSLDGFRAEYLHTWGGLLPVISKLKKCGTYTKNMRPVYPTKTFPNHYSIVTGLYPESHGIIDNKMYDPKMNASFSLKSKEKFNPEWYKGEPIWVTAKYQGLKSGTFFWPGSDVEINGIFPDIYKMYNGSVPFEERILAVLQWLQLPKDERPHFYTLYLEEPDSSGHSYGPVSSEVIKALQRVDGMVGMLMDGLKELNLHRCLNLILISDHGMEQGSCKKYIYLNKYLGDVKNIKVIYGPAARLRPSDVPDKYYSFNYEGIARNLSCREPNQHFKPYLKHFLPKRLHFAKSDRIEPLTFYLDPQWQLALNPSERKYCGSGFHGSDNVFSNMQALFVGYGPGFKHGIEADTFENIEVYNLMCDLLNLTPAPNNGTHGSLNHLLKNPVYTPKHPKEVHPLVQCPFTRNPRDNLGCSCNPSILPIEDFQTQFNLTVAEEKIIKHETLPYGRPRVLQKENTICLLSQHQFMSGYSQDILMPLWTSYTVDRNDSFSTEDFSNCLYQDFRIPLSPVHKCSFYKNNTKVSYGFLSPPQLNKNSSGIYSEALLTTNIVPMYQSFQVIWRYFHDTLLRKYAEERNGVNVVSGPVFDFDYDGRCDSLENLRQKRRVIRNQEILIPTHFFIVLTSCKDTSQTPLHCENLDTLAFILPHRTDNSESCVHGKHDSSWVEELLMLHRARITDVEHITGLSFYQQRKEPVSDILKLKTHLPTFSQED
ENPP1 on MDA-MB-231 cells, sequence (P22413 whole entry, the tested form may be a part): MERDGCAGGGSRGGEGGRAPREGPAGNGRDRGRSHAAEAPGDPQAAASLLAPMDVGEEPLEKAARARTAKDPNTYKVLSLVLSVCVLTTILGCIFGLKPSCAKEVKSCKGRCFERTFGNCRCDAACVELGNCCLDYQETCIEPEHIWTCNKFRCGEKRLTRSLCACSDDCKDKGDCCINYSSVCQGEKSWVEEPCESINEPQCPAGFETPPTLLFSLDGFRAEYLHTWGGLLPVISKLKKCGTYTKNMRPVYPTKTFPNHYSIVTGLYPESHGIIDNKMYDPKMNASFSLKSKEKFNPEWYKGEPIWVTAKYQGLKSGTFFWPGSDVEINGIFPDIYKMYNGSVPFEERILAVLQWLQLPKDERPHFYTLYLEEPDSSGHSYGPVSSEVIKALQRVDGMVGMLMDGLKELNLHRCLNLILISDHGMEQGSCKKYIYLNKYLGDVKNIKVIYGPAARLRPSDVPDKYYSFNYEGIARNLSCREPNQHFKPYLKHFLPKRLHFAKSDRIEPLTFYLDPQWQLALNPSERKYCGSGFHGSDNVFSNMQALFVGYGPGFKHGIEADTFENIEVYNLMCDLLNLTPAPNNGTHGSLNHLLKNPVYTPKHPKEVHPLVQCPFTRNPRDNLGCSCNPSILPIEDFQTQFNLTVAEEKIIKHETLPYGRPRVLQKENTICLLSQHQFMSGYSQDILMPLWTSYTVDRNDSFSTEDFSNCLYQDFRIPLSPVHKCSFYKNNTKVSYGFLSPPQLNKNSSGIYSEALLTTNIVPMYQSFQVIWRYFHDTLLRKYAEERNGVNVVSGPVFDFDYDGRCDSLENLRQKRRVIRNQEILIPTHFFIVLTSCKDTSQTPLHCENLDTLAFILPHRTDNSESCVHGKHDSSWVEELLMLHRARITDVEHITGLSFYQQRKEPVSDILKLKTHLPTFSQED

Ki [1, 4] [nM] | Ki [1, 5] [nM] | Ki [2] [nM] | IC50 [3, 7] [nM] | Structure (SMILES) | also measured
3 to 300 | 3.5 | 61 | 17 | COc1cc2nccc(Oc3ccc(S(C)(=N)=O)cc3)c2cc1OC (centres unmarked) [Compound 1, (4-((6,7-dimethoxyquinolin-4-yl)oxy)phenyl)(imino)(methyl)-λ^6-sulfanone] | Ki [3]: 5.1 nM; IC50 [3, 6]: 10 to 1000 nM; IC50 [3, 8]: 17 nM
< 3 | 0.87 | 45 | 13 | COc1cc2nccc(Oc3ccc([S@@](C)(=N)=O)cc3)c2cc1OC [Compound 1S, (S)-(4-((6,7-dimethoxyquinolin-4-yl)oxy)phenyl)(imino)(methyl)-λ^6-sulfanone] | IC50 [3, 6]: 10 to 1000 nM
< 3 | 0.69 | 27 | 4.1 | COc1cc2ncnc(N3CCC(CCS(C)(=N)=O)CC3)c2cc1OC (centres unmarked) [Compound 8, (2-(1-(6,7-dimethoxyquinazolin-4-yl)piperidin-4-yl)ethyl)(imino)(methyl)-λ^6-sulfanone] | IC50 [3, 8]: 6.9 nM; IC50 [3, 9]: < 10 nM
3 to 300 | 8.6 | 190 | 30 | COc1ccc2c(Oc3ccc(S(C)(=N)=O)cc3F)ccnc2c1 (centres unmarked) [Compound 12, (3-fluoro-4-((7-methoxyquinolin-4-yl)oxy)phenyl)(imino)(methyl)-λ^6-sulfanone] | IC50 [3, 6]: 10 to 1000 nM
< 3 | 0.41 | 28 | 2.9 | COc1cc2ncnc(-c3ccc4c(c3)CN(S(C)(=N)=O)CC4)c2cc1OC (centres unmarked) [Compound 37, 6,7-dimethoxy-4-(2-(S-methylsulfonimidoyl)-1,2,3,4-tetrahydroisoquinolin-7-yl)quinazoline] | IC50 [3, 9]: < 10 nM
< 3 | 0.49 | 29 | 3.9 | COc1cc2ncc(C#N)c(N3CCC(CCS(C)(=N)=O)CC3)c2cc1F (centres unmarked) [Compound 43, 6-fluoro-7-methoxy-4-(4-(2-(S-methylsulfonimidoyl)ethyl)piperidin-1-yl)quinoline-3-carbonitrile] | IC50 [3, 9]: < 10 nM
< 3 | 1.6 | 110 | 15 | COc1cc2ncc(C#N)c(Oc3ccc(S(C)(=N)=O)cc3)c2cc1F (centres unmarked) [Compound 44, 6-fluoro-7-methoxy-4-(4-(S-methylsulfonimidoyl)phenoxy)quinoline-3-carbonitrile] | IC50 [3, 6]: 10 to 1000 nM
– | – | – | – | COc1cc2ncc(C#N)c(Oc3ccc([S@@](C)(=N)=O)cc3)c2cc1F [Compound 44a] | Ki [1, 10]: < 3 nM; Ki [1, 11]: 1 nM; Ki [2, 12]: 110 nM; IC50 [3, 9]: 10 to 1000 nM; IC50 [3, 13]: 11 nM
3 to 300 | 6.3 | 280 | 35 | COc1ccc2c(-c3ccc4c(c3)CN(S(C)(=N)=O)CC4)ccnc2c1 (centres unmarked) [Compound 52, 7-methoxy-4-(2-(S-methylsulfonimidoyl)-1,2,3,4-tetrahydroisoquinolin-7-yl)quinoline] | IC50 [3, 6]: 10 to 1000 nM
3 to 300 | 4.6 | 160 | 44 | COc1ccc2c(N3CCC4(CC3)CN(S(C)(=N)=O)C4)ccnc2c1 (centres unmarked) [Compound 53, 7-methoxy-4-(2-(S-methylsulfonimidoyl)-2,7-diazaspiro[3.5]nonan-7-yl)quinoline] | IC50 [3, 6]: 10 to 1000 nM
< 3 | 0.014 | 0.88 | 0.71 | COc1cc2ncnc(N3CCC4(CC3)CCN(S(C)(=N)=O)C4)c2cc1OC (centres unmarked) [Compound 54, [8-(6,7-dimethoxyquinazolin-4-yl)-2,8-diazaspiro[4.5]decan-2-yl](imino)methyl-λ^6-sulfanone] | –
– | – | – | – | COc1cc2ncnc(N3CCC4(CC3)CCN([S@@](C)(=N)=O)C4)c2cc1OC [Compound 54a] | Ki [1, 10]: < 3 nM; Ki [1, 11]: 0.0075 nM; Ki [2, 12]: 0.32 nM; IC50 [3, 9]: < 10 nM; IC50 [3, 13]: 0.34 nM
– | – | – | – | COc1cc2ncnc(N3CCC4(CC3)CCN([S@](C)(=N)=O)C4)c2cc1OC [Compound 54b] | Ki [1, 10]: < 3 nM; Ki [1, 11]: 1.3 nM; Ki [2, 12]: 130 nM; IC50 [3, 9]: < 10 nM; IC50 [3, 13]: 7.6 nM
< 3 | 0.14 | 25 | 2 | COc1ccc2c(N3CCC4(CC3)CCN(S(C)(=N)=O)C4)ccnc2c1 (centres unmarked) [Compound 55, 8-(7-methoxyquinolin-4-yl)-2-(S-methylsulfonimidoyl)-2,8-diazaspiro[4.5]decane] | IC50 [3, 9]: < 10 nM
– | – | – | – | COc1ccc2c(N3CCC4(CC3)CCN([S@](C)(=N)=O)C4)ccnc2c1 [Compound 55a] | Ki [1, 10]: < 3 nM; Ki [1, 11]: 0.09 nM; Ki [2, 12]: 8.7 nM; IC50 [3, 9]: < 10 nM; IC50 [3, 13]: 0.76 nM
3 to 300 | 5.3 | 120 | 31 | COc1cccc2c(N3CCC(CCS(C)(=N)=O)CC3)c(C#N)cnc12 (centres unmarked) [Compound 57, 8-methoxy-4-(4-(2-(S-methylsulfonimidoyl)ethyl)piperidin-1-yl)quinoline-3-carbonitrile] | IC50 [3, 6]: 10 to 1000 nM
< 3 | 0.34 | 23 | 2.8 | COc1ccc2c(Oc3ccc(S(=N)(=O)C4CC4)cc3)ccnc2c1 (centres unmarked) [Compound 60, cyclopropyl(imino)(4-((7-methoxyquinolin-4-yl)oxy)phenyl)-λ^6-sulfanone] | IC50 [3, 9]: < 10 nM

Ki [1, 4] [nM] | Ki [1, 5] [nM] | Ki [2] [nM] | IC50 [3, 7] [nM] | Structure (SMILES) | also measured
– | 0.018 | 0.51 | – | COc1cc2ncc(F)c(N3CCC4(CC3)CCN(S(C)(=N)=O)C4)c2cc1OC (centres unmarked) [Compound 227, [8-(3-fluoro-6,7-dimethoxyquinolin-4-yl)-2,8-diazaspiro[4.5]decan-2-yl](imino)methyl-λ^6-sulfanone] | –
– | 0.25 | 8.7 | – | COc1cc2nnc(C)c(N3CCC4(CC3)CCN(S(C)(=N)=O)C4)c2cc1OC (centres unmarked) [Compound 228, [8-(6,7-dimethoxy-3-methylcinnolin-4-yl)-2,8-diazaspiro[4.5]decan-2-yl](imino)methyl-λ^6-sulfanone] | –
– | – | – | – | COc1cc2nccc(OC[C@@H]3CCN([S@](C)(=N)=O)C3)c2cc1F [Compound 229b] | Ki [1, 11]: 0.37 nM; Ki [2, 12]: 3.6 nM
– | – | – | – | COc1cc2nccc(OC[C@H]3CCN([S@@](C)(=N)=O)C3)c2cc1F [Compound 230b] | Ki [1, 11]: 0.38 nM; Ki [2, 12]: 6.6 nM
– | 1.2 | 56 | – | COc1ccc2c(COc3ccc(S(C)(=N)=O)cc3)ccnc2c1 (centres unmarked) [Compound 231, imino({4-[(7-methoxyquinolin-4-yl)methoxy]phenyl})methyl-λ^6-sulfanone] | –
– | 86 | > 580 | – | COc1cccc2c(N3CCC4(CC3)CN(S(C)(=N)=O)C4)ncnc12 (centres unmarked) [Compound 236, imino[7-(8-methoxyquinazolin-4-yl)-2,7-diazaspiro[3.5]nonan-2-yl]methyl-λ^6-sulfanone] | –
– | 0.028 | 1.2 | – | COc1cc2ncnc(N3CC4(CC(CS(C)(=N)=O)C4)C3)c2cc1OC (centres unmarked) [Compound 237] | –
– | – | – | – | COc1cc2ncnc(N3CC4(CC(C[S@](C)(=N)=O)C4)C3)c2cc1OC [Compound 237b] | Ki [1, 11]: 0.005 nM; Ki [2, 12]: 0.17 nM
– | – | – | – | COc1cccc2c(N3CC[C@H](C[S@@](C)(=N)=O)C3)ncnc12 [Compound 238a] | Ki [1, 11]: 66 nM; Ki [2, 12]: 260 nM
– | 0.81 | 15 | – | COc1cccc2c(N3CC[C@@H](CS(C)(=N)=O)C3)ncnc12 (stereo partly drawn) [Compound 239, imino({[(3R)-1-(8-methoxyquinazolin-4-yl)pyrrolidin-3-yl]methyl})methyl-λ^6-sulfanone] | –
– | – | – | – | COc1cccc2c(N3CC[C@@H](C[S@](C)(=N)=O)C3)ncnc12 [Compound 239a] | Ki [1, 11]: 0.43 nM; Ki [2, 12]: 5.4 nM
– | 0.069 | 5.4 | – | COc1cc2ncnc(N3CCC4(CC3)CCN(S(=N)(=O)CC(C)(C)O)C4)c2cc1OC (centres unmarked) [Compound 240, [8-(6,7-dimethoxyquinazolin-4-yl)-2,8-diazaspiro[4.5]decan-2-yl](2-hydroxy-2-methylpropyl)imino-λ^6-sulfanone] | –
– | 0.031 | 1.2 | – | COc1cc2ncnc(N3CCC4(CC3)CCN(S(C)(=N)=O)C4)c2cc1OCF (centres unmarked) [Compound 241, {8-[6-(fluoromethoxy)-7-methoxyquinazolin-4-yl]-2,8-diazaspiro[4.5]decan-2-yl}(imino)methyl-λ^6-sulfanone] | –
– | 0.018 | 0.55 | – | COc1cc2nccc(OCc3cccc(S(=N)(=O)C4CC4)c3)c2cc1F (centres unmarked) [Compound 244, [cyclopropyl(3-{[(6-fluoro-7-methoxyquinolin-4-yl)oxy]methyl}phenyl)imino-λ^6-sulfanyl]one] | –
– | 0.23 | 5.7 | – | COc1ccc2c(O[C@@H](C)c3cccc(S(C)(=N)=O)c3)ccnc2c1 (stereo partly drawn) [Compound 245, imino({3-[(1S)-1-[(7-methoxyquinolin-4-yl)oxy]ethyl]phenyl})methyl-λ^6-sulfanone] | –
– | – | 23 | – | COc1cc2ncnc(-c3ccc4c(c3)CN(S(N)(=O)=O)CC4)c2cc1OC [reference compound] | IC50 [3, 8]: 11 nM

— US11780849B2, “Imino sulfanone inhibitors of ENPP1” (Volastra Therapeutics, Inc., priority 2020, dated 2023)
